Measurements as given in publication PMC10254233, “Synthesis and In Vitro Biological Evaluation of p-Carborane-Based Di-tert-butylphenol Analogs” (Molecules, 2023).

Legend:
5-LO = target: T1, 5-LO (Homo sapiens, UniProt P09917); assay: 5-LO product formation in intact PMNL; details: PMNL, read-out: inhibition of 5-LO product formation
T1 sequence (P09917 1-674): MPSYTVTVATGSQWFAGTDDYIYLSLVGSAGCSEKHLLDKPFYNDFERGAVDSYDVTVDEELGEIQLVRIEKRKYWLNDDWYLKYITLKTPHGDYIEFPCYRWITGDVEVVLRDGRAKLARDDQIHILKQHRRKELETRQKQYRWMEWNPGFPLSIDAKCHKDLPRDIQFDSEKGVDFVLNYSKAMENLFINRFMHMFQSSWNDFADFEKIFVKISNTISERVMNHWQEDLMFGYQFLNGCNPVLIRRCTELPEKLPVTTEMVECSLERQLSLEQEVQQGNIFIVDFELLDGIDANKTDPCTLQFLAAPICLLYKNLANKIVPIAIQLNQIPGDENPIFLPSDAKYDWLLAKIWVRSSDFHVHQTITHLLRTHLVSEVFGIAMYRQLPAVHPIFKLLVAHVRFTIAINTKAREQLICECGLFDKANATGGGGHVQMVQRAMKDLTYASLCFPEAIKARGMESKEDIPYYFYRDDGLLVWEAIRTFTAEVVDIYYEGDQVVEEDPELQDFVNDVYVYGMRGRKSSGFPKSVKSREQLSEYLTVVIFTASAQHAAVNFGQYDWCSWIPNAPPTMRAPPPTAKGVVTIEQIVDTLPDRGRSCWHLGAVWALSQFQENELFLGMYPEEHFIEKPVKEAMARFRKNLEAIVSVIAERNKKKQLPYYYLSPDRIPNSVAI
Protocol: After 10 min at 37 °C, the reaction was stopped by addition of ice-cold methanol (1 mL). HCl (30 μL, 1 M), prostaglandin B1 (200 ng) and PBS (500 μL) were added and the formed metabolites were extracted and analyzed by HPLC as described previously [96].

ovine COX-1 = target: T2, ovine COX-1 (Ovis aries, UniProt P05979); assay: COX Fluorescent Inhibitor Screening Assay, COX-1; assay type: biochemical; details: in duplicate
T2 construct: purchased Cayman Chemical Company
T2 sequence (P05979 25-600): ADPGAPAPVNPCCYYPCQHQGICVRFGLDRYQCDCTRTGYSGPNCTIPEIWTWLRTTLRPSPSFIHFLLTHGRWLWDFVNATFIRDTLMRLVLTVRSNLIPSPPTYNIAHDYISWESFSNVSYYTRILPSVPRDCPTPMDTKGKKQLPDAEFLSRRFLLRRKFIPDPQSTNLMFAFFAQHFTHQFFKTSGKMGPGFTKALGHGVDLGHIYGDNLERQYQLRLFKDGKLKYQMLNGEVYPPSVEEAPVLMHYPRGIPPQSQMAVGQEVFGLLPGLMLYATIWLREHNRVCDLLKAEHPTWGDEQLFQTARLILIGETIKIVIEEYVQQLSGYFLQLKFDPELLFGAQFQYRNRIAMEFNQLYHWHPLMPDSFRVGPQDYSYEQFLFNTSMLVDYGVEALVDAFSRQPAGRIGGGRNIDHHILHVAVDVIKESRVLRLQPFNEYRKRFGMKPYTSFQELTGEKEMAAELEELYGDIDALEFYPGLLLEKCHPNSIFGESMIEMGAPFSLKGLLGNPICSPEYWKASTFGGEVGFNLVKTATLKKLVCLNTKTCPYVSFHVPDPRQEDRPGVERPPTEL
Protocol: (§1) COX inhibition activity against ovine COX-1 and human COX-2 was determined using the fluorescence-based COX assay COX Fluorescent Inhibitor Screening Assay Kit (Cayman Chemical Company, Ann Arbor, MI, USA) according to the manufacturer’s instructions as previously reported by us. All compounds were screened at a concentration of 100 µM in duplicate.

human recombinant COX-2 = target: T3, human recombinant COX-2 (Homo sapiens, UniProt P35354); assay: COX Fluorescent Inhibitor Screening Assay, COX-2; assay type: biochemical; details: in duplicate
T3 construct: purchased Cayman Chemical Company
T3 sequence (P35354 18-604): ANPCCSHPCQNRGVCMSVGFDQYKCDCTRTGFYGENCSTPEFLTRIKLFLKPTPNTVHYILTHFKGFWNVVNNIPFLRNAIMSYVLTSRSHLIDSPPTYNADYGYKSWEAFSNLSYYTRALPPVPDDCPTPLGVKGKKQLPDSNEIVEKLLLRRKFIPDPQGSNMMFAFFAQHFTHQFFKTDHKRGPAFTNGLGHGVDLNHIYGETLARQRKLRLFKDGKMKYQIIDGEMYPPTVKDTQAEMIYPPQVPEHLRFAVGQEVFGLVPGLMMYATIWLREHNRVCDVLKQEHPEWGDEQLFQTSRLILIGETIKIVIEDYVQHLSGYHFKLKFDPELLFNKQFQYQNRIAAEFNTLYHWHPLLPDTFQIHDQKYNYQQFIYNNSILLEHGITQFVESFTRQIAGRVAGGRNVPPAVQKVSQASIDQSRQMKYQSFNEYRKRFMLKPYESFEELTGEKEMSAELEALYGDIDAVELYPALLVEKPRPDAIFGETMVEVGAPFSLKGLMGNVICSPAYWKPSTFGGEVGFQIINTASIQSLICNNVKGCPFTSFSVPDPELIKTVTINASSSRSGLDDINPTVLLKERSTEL
Protocol: as §1

A375 melanoma [1] = assay: Cell viability, MTT assay, A375; assay type: cell-based, human; details: Homo sapiens, A-375; 72 h, mean ± SD
Protocol: (§2) Five human cell lines (A375 melanoma, A549 lung adenocarcinoma, HCT116 and HT29 colorectal carcinoma, MDA-MB-231 triple-negative breast adenocarcinoma) were used to study the antitumor effects of the di-tert-butylphenols and their respective carborane analogs. All selected cell lines were derived from inflammation-associated tumors.
(§3) After the incubation period, the supernatant was discarded from the wells, and the cells were washed two times with 200 µL of PBS. Next, MTT solution at a final concentration of 0.5 mg/mL was added and incubated at 37 °C until purple formazan crystals were formed (30 min to one hour). After incubation, the dye was discarded. In order to dissolve the formed formazan crystals DMSO was added, and the absorbance was measured at λmax = 540 nm, with the reference/background wavelength of 670 nm. All results are expressed as a percentage of the control value which was arbitrary set to 100%. After 72 h treatment, cells were washed with 200 µL of PBS and fixed with 4% paraformaldehyde (PFA) for 15 min at room temperature (RT). Next, cells were stained with 1% CV solution. After 20 min, cells were washed in tap water and dried on air. Dye was dissolved in 33% acetic acid and the absorbance was measured at λmax = 540 nm, with the reference/background wavelength of 670 nm. Results were expressed as a percentage of the control value which was arbitrary set to 100%.
(§4) 1. General methods, materials, and procedures
(§5) 1.1.1. Reagents and cells
(§6) Reagents and cells were obtained from following manufacturers: Capricorn Scientific GmbH (Hessen, Germany) – Culture medium RPMI-1640, Dulbecco's Modified Eagle Medium (DMEM), and fetal bovine serum (FBS). Serva (Heidelberg, Germany) – Paraformaldehyde (PFA). Sigma (St. Louis, MO, USA) – Ethylenediaminetetraacetic acid (EDTA), Dimethyl sulfoxide (DMSO), chloroquine, CV, Triton X-100, RNase, PI, PBS, 3-MA, CFSE, and fluorescent mounting medium. AppliChem (MO, USA) –MTT. Thermo Fisher Scientific (Waltham, MA, USA) – DHR. R&D Systems (Minneapolis, MN, USA) – ApoStat. BD (Pharmingen, San Diego, SAD) – Annexin V-FITC (AnnV). Biological Industries (Cromwell, CT, USA) – Penicillin Streptomycin solution. American Type Culture Collection (ATCC, Manassas, Virginia, USA) – Human lung carcinoma (A549), human breast adenocarcinoma (MDA-MB-231), human colorectal ade-nocarcinoma (HT-29), human colorectal carcinoma (HCT116) and human melanoma (A375).
(§7) Cell lines (A375, HCT116, HT-29 and MDA-MB-231) were cultivated in HEPES-buffered RPMI-1640 medium while A549 cell line was cultivated in Dulbecco's Modified Eagle Medium (DMEM) which were previously supplemented with 10% heat-inactivated FBS, penicillin (100 units/mL), and streptomycin (100 μg/mL). All cells were kept at 37 °C in a humidified atmosphere with 5% CO2. For viability determi-nation cells were seeded at following densities in 96-well plates: 4 x 10^3 cells/well (A375, HT-29 and MDA-MB-231), 5 x 10^3 cells/well (HCT116), and 3 x 10^3 cells/well (A549). […]
(§8) Afterwards, cells were washed with phosphate-buffered saline (PBS) and stained with AnnV (15 μg/mL) and PI (15 μg/mL). […]
(§9) PBS and analyzed using flow cytometry. HCT116 cells were stained with 1 µg/mL of AO solution for 15 min at 37 °C to detect the presence of autophagic cell death. Afterwards cells were washed with PBS, resuspended and analyzed by flow cytometry (CyFlow® Space Partec using the PartecFloMax® software

A549 lung adenocarcinoma [2] = assay: Cell viability, MTT assay, A549; assay type: cell-based, human; details: Homo sapiens, A549; 72 h, mean ± SD
Protocol: as §2, §3, §4, §5, §6, §7
(§10) Afterwards, cells were washed with phosphate-buffered saline (PBS) and stained with AnnV (15 μg/mL) and PI (15 μg/mL). After 15 min incubation at room temperature (RT) protected from light the cells were resuspended in AnnV-binding buffer and analysed using flow cytom-etry. HCT116 cells were incubated with pan-caspase inhibitor Apostat for 30 min at 37 °C to determine whether detected apoptosis was mediated by caspase activation. Afterwards, cells were washed with PBS and analyzed using flow cytometry. HCT116 cells were stained with 1 µg/mL of AO solution for 15 min at 37 °C to detect the presence of autophagic cell death. Afterwards cells were washed with PBS, resuspended and analyzed by flow cytometry (CyFlow® Space Partec using the PartecFloMax® software

[3] = system: HCT116 colorectal carcinoma; assay: Cell viability, MTT assay, HCT116; assay type: cell-based, human; details: Homo sapiens, HCT-116; 72 h, mean ± SD
Protocol: as §2, §3, §4, §5, §6, §7, §8, §9

[4] = system: HT-29 colorectal carcinoma; assay: Cell viability, MTT assay, HT-29; assay type: cell-based, human; details: Homo sapiens, HT-29; 72 h, mean ± SD
Protocol: as §2, §3, §4, §5, §6, §7, §10

[5] = system: MDA-MB-231 triple-negative breast adenocarcinoma; assay: Cell viability, MTT assay, MDA-MB-231; assay type: cell-based, human; details: Homo sapiens, MDA-MB-231; 72 h, mean ± SD
Protocol: as §2, §3, §4, §5, §6, §7, §10

A375 melanoma [6] = assay: Cell viability, crystal violet (CV) assay, A375; assay type: cell-based; details: Homo sapiens, A-375; 72 h, mean ± SD
Protocol: as §2, §3, §4, §5
as §6, with “American Type Culture Collection (ATCC, Manassas, Virginia, USA) – Human lung carcinoma (A549), human breast adenocarcinoma (MDA-MB-231), human colorectal ade-nocarcinoma (HT-29), human colorectal carcinoma (HCT116) and human melanoma (A375).” left out
as §10, with “HCT116 cells were stained with 1 µg/mL of AO solution for 15 min at 37 °C to detect the presence of autophagic cell death.” left out

A549 lung adenocarcinoma [7] = assay: Cell viability, crystal violet (CV) assay, A549; assay type: cell-based; details: Homo sapiens, 72 h, mean ± SD
Protocol: as §2, §3, §4, §5
as §6, with “American Type Culture Collection (ATCC, Manassas, Virginia, USA) – Human lung carcinoma (A549), human breast adenocarcinoma (MDA-MB-231), human colorectal ade-nocarcinoma (HT-29), human colorectal carcinoma (HCT116) and human melanoma (A375).” left out
as §10, with “HCT116 cells were stained with 1 µg/mL of AO solution for 15 min at 37 °C to detect the presence of autophagic cell death.” left out

[8] = system: HCT116 colorectal carcinoma; assay: Cell viability, crystal violet (CV) assay, HCT116; assay type: cell-based; details: Homo sapiens, HCT-116; 72 h, mean ± SD
Protocol: as §2, §3, §4, §5
as §6, with “American Type Culture Collection (ATCC, Manassas, Virginia, USA) – Human lung carcinoma (A549), human breast adenocarcinoma (MDA-MB-231), human colorectal ade-nocarcinoma (HT-29), human colorectal carcinoma (HCT116) and human melanoma (A375).” left out
as §10, with “HCT116 cells were stained with 1 µg/mL of AO solution for 15 min at 37 °C to detect the presence of autophagic cell death.” left out

[9] = system: HT-29 colorectal carcinoma; assay: Cell viability, crystal violet (CV) assay, HT-29; assay type: cell-based; details: Homo sapiens, 72 h, mean ± SD
Protocol: as §2, §3, §4, §5
as §6, with “American Type Culture Collection (ATCC, Manassas, Virginia, USA) – Human lung carcinoma (A549), human breast adenocarcinoma (MDA-MB-231), human colorectal ade-nocarcinoma (HT-29), human colorectal carcinoma (HCT116) and human melanoma (A375).” left out
as §10, with “HCT116 cells were stained with 1 µg/mL of AO solution for 15 min at 37 °C to detect the presence of autophagic cell death.” left out

[10] = system: MDA-MB-231 triple-negative breast adenocarcinoma; assay: Cell viability, crystal violet (CV) assay, MDA-MB-231; assay type: cell-based; details: Homo sapiens, 72 h, mean ± SD
Protocol: as §2, §3, §4, §5
as §6, with “American Type Culture Collection (ATCC, Manassas, Virginia, USA) – Human lung carcinoma (A549), human breast adenocarcinoma (MDA-MB-231), human colorectal ade-nocarcinoma (HT-29), human colorectal carcinoma (HCT116) and human melanoma (A375).” left out
as §10, with “HCT116 cells were stained with 1 µg/mL of AO solution for 15 min at 37 °C to detect the presence of autophagic cell death.” left out

physchem = details: pH 7.4

Row | SMILES | inhibition at 0.1 µM (5-LO) [%] | inhibition at 100 µM (ovine COX-1) [%] | inhibition at 100 µM (human recombinant COX-2) [%] | IC50 (A375 melanoma [1]) [µM] | IC50 (A549 lung adenocarcinoma [2]) [µM] | IC50 [3] [µM] | IC50 [4] [µM] | IC50 [5] [µM] | IC50 (A375 melanoma [6]) [µM] | IC50 (A549 lung adenocarcinoma [7]) [µM] | IC50 [8] [µM] | IC50 [9] [µM] | IC50 [10] [µM] | chromatographic logD (physchem)
1 | CC(=O)N(O)C/C=C/c1cccc(Oc2ccccc2)c1 [BWA4C, N-[(E)-3-(3-Phenoxyphenyl)prop-2-enyl]acetohydroxamic acid] | 92.5 |  |  |  |  |  |  |  |  |  |  |  |  | 
2 | CCN1CC/C(=C\c2cc(C(C)(C)C)c(O)c(C(C)(C)C)c2)S1(=O)=O [Compound S-2474, 2,6-Bis(1,1-dimethylethyl)-4-[(E)-(2-ethyl-1,1-dioxido-5-isothiazolidinylidene)methyl]phenol] |  | 38 | 86 | 13.2 ± 2.7 | 16.2 ± 1.2 | 17.5 ± 1 | 16.1 ± 1.1 | 34.8 ± 1.7 | 19.2 ± 0.7 | 17.9 ± 1.2 | 23.7 ± 1.9 | 23.8 ± 1.7 | 43.5 ± 1.8 | 3.75
